# Measurements published in US20260263334A1, “COMPOSITIONS CONTAINING NITRATE-RICH FOODS AND EXTRACTS FOR SHIFTING THE ORAL MICROBIOME” (WM. WRIGLEY JR. COMPANY, priority 2023, published 2026).
# Key:
# [1] = system: Veillonella atypica (ATCC 17744) (V.a.); experiment: nitrate reductase (NR) activity of V.a (Griess test); type: cell-based; conditions: for NR activity of CHX treated V.a (OD): Reduced Transport buffer
# Experimental: (§1) For evaluation of nitric oxide producing capability of oral bacteria, overnight cultures of test organisms were washed once and transferred into a medium without any nitrate or nitrite compounds. A 0.5% (or 1%) KNO3 was added to the medium, and further incubated anaerobically at 37° C. for 24-48 hours. The concentration of nitrite (due to reduction of nitrate by nitrate reductase) was determined by Griess Test over a desired period of time.
# (§2) To examine the effect of natural and chemical antimicrobial agents on NO production, test bacteria were pre-exposed to magnolia bark extract (MBE) (a natural germ-kill compound), peppermint oil, and chlorhexidine (CHX). The activities of nitrate reductase from oral bacteria were assayed by Griess test as described above. No treatment controls were included for each test bacterial species. The production of nitrite was reduced if the test antimicrobial compounds affected the nitrate reductase activity. Dose response curves were prepared.
# V. atypica was grown in RCM medium without (NH4)2SO4 (to avoid the NH4 affecting Griess reagent); and without agar (0.05%, to avoid affecting the OD measurement).
# The method used was the same as that for A.a., except the V.a cell concentration was adjusted to OD550 nm=0.7 (10^8 CFR/ml) in Reduced Transport buffer. The NR activity was also determined in the same buffer system. […]
# (§3) Test bacteria cells were incubated with 1% cysteine in growth medium and 0.3% of a nitrate source. Controls contained no cysteine.
# [2] = system: Aggregatibacter actinomycetemcomitans (A.a.); experiment: nitrate reductase (NR) activity of A.a. (Griess test); type: cell-based
# Experimental: as §1, §2
# A. actinomycetemcomitans (A.a.) was grown anaerobically in THB broth supplemented with 1% yeast extract with 0.001% Hemin, and 0.0001% Vitamin K.
# The nitrate source KNO3 (0.1% final) was added to respective growth media for individual test bacteria and incubated for 24-48 hours, then 20 μl of the culture broth was withdrawn and tested for nitrite with Griess reagent.
# Test bacteria were grown in respective media anaerobically for 48 hours. Cells were centrifuged and re-suspended in buffer or fresh medium for NR activity testing. […]
# as §3
# oral microbiota = conditions: mouthwash containing 0.12% of chlorhexidine, cited from earlier work
# [3] = system: Aggregatibacter actinomycetemcomitans (A.a.); experiment: short-term time-kill against A.a. (viable colony on agar); type: cell-based; set-up: key to viable colony: +: viable colony; −: no viable colony; conditions: for viable colony: stop reagent
# Experimental: Fresh grown cells were harvested and adjusted to OD550 nm=0.5, then mixed with CHX (75-1,000 μg/ml). At different time points, an aliquot of cells was removed and mixed with (or without) stop reagent (0.5% Tween 80 and 0.07% Lecithin) to stop the CHX reaction on cells. The treated cells were centrifuged to remove the supernatant that contained CHX, and the cell pellet was spotted on BHI agar (supplemented with 0.001% Hemin, 0.0001% Vitamin K) for cell viability. Fresh grown cells were harvested and mixed with MBE for a short period of time and the viability of treated cells were evaluated. 10% DMSO was used to wash the treated cells and the MBE was removed from the assay system. Immediately after treatment, 10% DMSO was added to the cell mixture. The cell mixture was then centrifuged and washed once more with 10% DMSO. Cells treated with MBE for various times were spotted on an agar plate, […] and noted for viable colony development.
# [4] = chlorhexidine >=10 μg/ml, summary
smiles,measurement,setting,value
"[H]/N=C(\N/C(=N/[H])NCCCCCCNC(=N)NC(=N)Nc1ccc(Cl)cc1)Nc1ccc(Cl)cc1 [CHX, chlorhexidine]",NR activity of CHX treated V.a (OD),"[1]; CHX 10 μg/ml, 1 min Treatment",0.266 OD
same,NR activity of CHX treated V.a (OD),"[1]; CHX 10 μg/ml, 10 min Treatment",0.300 OD
same,NR activity of CHX treated V.a (OD),"[1]; CHX 50 μg/ml, 1 min Treatment",0.304 OD
same,NR activity of CHX treated V.a (OD),"[1]; CHX 50 μg/ml, 10 min Treatment",0.282 OD
same,NR activity of CHX treated V.a (OD),"[1]; CHX 100 μg/ml, 1 min Treatment",0.255 OD
same,NR activity of CHX treated V.a (OD),"[1]; CHX 100 μg/ml, 10 min Treatment",0.280 OD
same,NR activity of CHX treated V.a (OD),"[1]; CHX 250 μg/ml, 1 min Treatment",0.190 OD
same,NR activity of CHX treated V.a (OD),"[1]; CHX 250 μg/ml, 10 min Treatment",0.161 OD
same,NR activity of CHX treated V.a (OD),"[1]; CHX 500 μg/ml, 1 min Treatment",0.170 OD
same,NR activity of CHX treated V.a (OD),"[1]; CHX 500 μg/ml, 10 min Treatment",0.162 OD
same,activities of nitrate reductase,[1]; [4],significantly inhibits
same,NR activity of CHX treated A.a.,[2]; CHX 100 μg/ml for 10 min,inhibited NR activity
same,OD at 550 nm for A.a. NR activity test,"[2]; CHX 100 μg/ml, 1 min treatment, 2nd trial, 2 hr",0.212 OD
same,OD at 550 nm for A.a. NR activity test,"[2]; CHX 100 μg/ml, 1 min treatment, 2nd trial, 3 hr",0.856 OD
same,OD at 550 nm for A.a. NR activity test,"[2]; CHX 100 μg/ml, 1 min treatment, 3rd trial, 2 hr",0.844 OD
same,OD at 550 nm for A.a. NR activity test,"[2]; CHX 100 μg/ml, 10 min treatment, 1st trial, 2 hr",0.117 OD
same,OD at 550 nm for A.a. NR activity test,"[2]; CHX 100 μg/ml, 10 min treatment, 1st trial, 3 hr",0.130 OD
same,OD at 550 nm for A.a. NR activity test,"[2]; CHX 100 μg/ml, 10 min treatment, 2nd trial, 2 hr",0.284 OD
same,OD at 550 nm for A.a. NR activity test,"[2]; CHX 200 μg/ml, 1 min treatment, 2nd trial, 2 hr",0.279 OD
same,OD at 550 nm for A.a. NR activity test,"[2]; CHX 200 μg/ml, 1 min treatment, 2nd trial, 3 hr",0.849 OD
same,OD at 550 nm for A.a. NR activity test,"[2]; CHX 200 μg/ml, 1 min treatment, 3rd trial, 2 hr",0.852 OD
same,OD at 550 nm for A.a. NR activity test,"[2]; CHX 200 μg/ml, 10 min treatment, 1st trial, 2 hr",0.125 OD
same,OD at 550 nm for A.a. NR activity test,"[2]; CHX 200 μg/ml, 10 min treatment, 1st trial, 3 hr",0.127 OD
same,OD at 550 nm for A.a. NR activity test,"[2]; CHX 200 μg/ml, 10 min treatment, 2nd trial, 2 hr",0.125 OD
same,OD at 550 nm for A.a. NR activity test,"[2]; CHX 300 μg/ml, 1 min treatment, 1st trial, 2 hr",0.263 OD
same,OD at 550 nm for A.a. NR activity test,"[2]; CHX 300 μg/ml, 1 min treatment, 2nd trial, 2 hr",0.134 OD
same,OD at 550 nm for A.a. NR activity test,"[2]; CHX 300 μg/ml, 1 min treatment, 2nd trial, 3 hr",0.260 OD
same,OD at 550 nm for A.a. NR activity test,"[2]; CHX 300 μg/ml, 1 min treatment, 3rd trial, 2 hr",0.853 OD
same,OD at 550 nm for A.a. NR activity test,"[2]; CHX 300 μg/ml, 10 min treatment, 1st trial, 2 hr",0.115 OD
same,OD at 550 nm for A.a. NR activity test,"[2]; CHX 300 μg/ml, 10 min treatment, 1st trial, 3 hr",0.130 OD
same,OD at 550 nm for A.a. NR activity test,"[2]; CHX 300 μg/ml, 10 min treatment, 2nd trial, 2 hr",0.129 OD
same,OD at 550 nm for A.a. NR activity test,"[2]; CHX 500 μg/ml, 1 min treatment, 1st trial, 2 hr",0.284 OD
same,OD at 550 nm for A.a. NR activity test,"[2]; CHX 500 μg/ml, 1 min treatment, 2nd trial, 2 hr",0.107 OD
same,OD at 550 nm for A.a. NR activity test,"[2]; CHX 500 μg/ml, 1 min treatment, 2nd trial, 3 hr",0.213 OD
same,OD at 550 nm for A.a. NR activity test,"[2]; CHX 500 μg/ml, 1 min treatment, 3rd trial, 2 hr",0.443 OD
same,OD at 550 nm for A.a. NR activity test,"[2]; CHX 500 μg/ml, 10 min treatment, 1st trial, 2 hr",0.114 OD
same,OD at 550 nm for A.a. NR activity test,"[2]; CHX 500 μg/ml, 10 min treatment, 1st trial, 3 hr",0.118 OD
same,OD at 550 nm for A.a. NR activity test,"[2]; CHX 500 μg/ml, 10 min treatment, 2nd trial, 2 hr",0.131 OD
same,OD at 550 nm for A.a. NR activity test,"[2]; CHX 750 μg/ml, 1 min treatment, 1st trial, 2 hr",0.148 OD
same,OD at 550 nm for A.a. NR activity test,"[2]; CHX 750 μg/ml, 1 min treatment, 2nd trial, 2 hr",0.107 OD
same,OD at 550 nm for A.a. NR activity test,"[2]; CHX 750 μg/ml, 1 min treatment, 2nd trial, 3 hr",0.169 OD
same,OD at 550 nm for A.a. NR activity test,"[2]; CHX 750 μg/ml, 1 min treatment, 3rd trial, 2 hr",0.391 OD
same,OD at 550 nm for A.a. NR activity test,"[2]; CHX 750 μg/ml, 10 min treatment, 1st trial, 2 hr",0.118 OD
same,OD at 550 nm for A.a. NR activity test,"[2]; CHX 750 μg/ml, 10 min treatment, 1st trial, 3 hr",0.141 OD
same,OD at 550 nm for A.a. NR activity test,"[2]; CHX 750 μg/ml, 10 min treatment, 2nd trial, 2 hr",0.112 OD
same,NR activity of CHX treated A.a.,"[2]; CHX 1,000 μg/ml (0.1%) for 1 min",completely inhibited NR activity
same,OD at 550 nm for A.a. NR activity test,"[2]; CHX 1000 μg/ml, 1 min treatment, 1st trial, 2 hr",0.160 OD
same,activities of nitrate reductase,[2]; [4],significantly inhibits
same,VSC-producing bacteria and enteric nitric oxide producing bacteria,oral microbiota,reduced
same,oral and plasma nitrite levels,oral microbiota; healthy human volunteers,reduced
same,systolic and diastolic blood pressure,oral microbiota; healthy human volunteers,sustained increase
same,viable colony,"[3]; CHX 75 μg/ml, treatment time 0 min",+
same,viable colony,"[3]; CHX 75 μg/ml, treatment time 5 min",+
same,viable colony,"[3]; CHX 75 μg/ml, treatment time 30 min",+
same,viable colony,"[3]; CHX 75 μg/ml, treatment time 60 min",+
same,viable colony,"[3]; CHX 100 μg/ml, treatment time 0 min",+
same,viable colony,"[3]; CHX 100 μg/ml, treatment time 1 min",+
same,viable colony,"[3]; CHX 100 μg/ml, treatment time 3 min",+
same,viable colony,"[3]; CHX 100 μg/ml, treatment time 5 min",+
same,viable colony,"[3]; CHX 100 μg/ml, treatment time 10 min",+
same,viable colony,"[3]; CHX 100 μg/ml, treatment time 30 min",+
same,viable colony,"[3]; CHX 100 μg/ml, treatment time 60 min",−
same,viable colony,"[3]; CHX 200 μg/ml, treatment time 0 min",+
same,viable colony,"[3]; CHX 200 μg/ml, treatment time 1 min",+
same,viable colony,"[3]; CHX 200 μg/ml, treatment time 2 min",+
same,viable colony,"[3]; CHX 200 μg/ml, treatment time 3 min",+
same,viable colony,"[3]; CHX 200 μg/ml, treatment time 5 min",+
same,viable colony,"[3]; CHX 200 μg/ml, treatment time 10 min",+
same,viable colony,"[3]; CHX 200 μg/ml, treatment time 30 min",−
same,viable colony,"[3]; CHX 200 μg/ml, treatment time 60 min",−
same,viable colony,"[3]; CHX 300 μg/ml, treatment time 0 min",+
same,viable colony,"[3]; CHX 300 μg/ml, treatment time 1 min",+
same,viable colony,"[3]; CHX 300 μg/ml, treatment time 2 min",+
same,viable colony,"[3]; CHX 300 μg/ml, treatment time 3 min",+
same,viable colony,"[3]; CHX 300 μg/ml, treatment time 5 min",+
same,viable colony,"[3]; CHX 300 μg/ml, treatment time 10 min",+
same,viable colony,"[3]; CHX 300 μg/ml, treatment time 30 min",−
same,viable colony,"[3]; CHX 300 μg/ml, treatment time 60 min",−
same,viable colony,"[3]; CHX 500 μg/ml, treatment time 0 min",+
same,viable colony,"[3]; CHX 500 μg/ml, treatment time 1 min",+
same,viable colony,"[3]; CHX 500 μg/ml, treatment time 2 min",+
same,viable colony,"[3]; CHX 500 μg/ml, treatment time 3 min",+
same,viable colony,"[3]; CHX 500 μg/ml, treatment time 5 min",+
same,viable colony,"[3]; CHX 500 μg/ml, treatment time 10 min",−
same,viable colony,"[3]; CHX 500 μg/ml, treatment time 30 min",−
same,viable colony,"[3]; CHX 500 μg/ml, treatment time 60 min",−
same,viable colony,"[3]; CHX 750 μg/ml, treatment time 0 min",+
same,viable colony,"[3]; CHX 750 μg/ml, treatment time 1 min",+
same,viable colony,"[3]; CHX 750 μg/ml, treatment time 2 min",+
same,viable colony,"[3]; CHX 750 μg/ml, treatment time 3 min",+
same,viable colony,"[3]; CHX 750 μg/ml, treatment time 5 min",+
same,viable colony,"[3]; CHX 750 μg/ml, treatment time 10 min",−
same,viable colony,"[3]; CHX 750 μg/ml, treatment time 30 min",−
same,viable colony,"[3]; CHX 750 μg/ml, treatment time 60 min",−
same,viable colony,"[3]; CHX 1000 μg/ml, treatment time 0 min",+
same,viable colony,"[3]; CHX 1000 μg/ml, treatment time 1 min",+
same,viable colony,"[3]; CHX 1000 μg/ml, treatment time 2 min",+
same,viable colony,"[3]; CHX 1000 μg/ml, treatment time 3 min",−
same,viable colony,"[3]; CHX 1000 μg/ml, treatment time 5 min",−
same,viable colony,"[3]; CHX 1000 μg/ml, treatment time 30 min",−
same,viable colony,"[3]; CHX 1000 μg/ml, treatment time 60 min",−
same,viability of A.a.,"[3]; CHX 75-1,000 μg/ml, two-minute treatment, stop reagent added",limited viability
